Data set [1] has as its system APP/PS1 mice. Description: thioflavin S staining of Aβ plaques in cortex and hippocampus (Fig 6a). Format: in vivo, mouse. As to conditions: APP/PS1 + N-AS, individual values. The method, then: (§1) Thioflavin S (Sigma-Aldrich) staining was carried out according to previously described procedures. We used 6E10 (mouse, 1:100, Signet, SIG39300), anti-20G10 (mouse, 1:1000, provided by D. R. Howlett, GlaxoSmithKline, Harlow, Essex, UK) for Aβ42, anti-G30 (rabbit, 1:1000, provided by D. R. Howlett) for Aβ40, SMA (mouse, 1:400, Sigma-Aldrich, A2547), AT8 (mouse, 1:500, Thermo Fisher Scientific, MN1020), Caspase-3 (mouse, 1:200, Novus Biologicals, NB100-56708), ac-S565 (rabbit, 1:100), COX2 (mouse, 1:250, Thermo Fisher Scientific, 35-8200), Iba1 (rabbit, 1:500, Wako, 019-19941 and goat, Abcam, ab5076), NeuN (mouse, 1:500, Millipore, MAB177), GFAP (rabbit, 1:500, Dako, N1506 and chicken, 1:500, Abcam, ab4674), and Lamp1 (mouse, 1:200, Abcam, ab24170). The sections were analyzed with a laser-scanning confocal microscope (FV3000; Olympus) or with a BX51 microscope (Olympus). MetaMorph software (Molecular Devices) was used to quantification. Three-dimensional reconstruction of microglia was recorded and analyzed using IMARIS software (Bitplane)[11]. For the analysis of age-dependent microglial COX2^+ CX3CR1^+ cells in WT and APP/PS1 mice, COX2 (rabbit, 1:100, Abcam, ab15191) and CX3CR1 (mouse, 1:100, BioLegend, 149008) antibody were used and the images were acquired on Alexa 488 and APC Channel with performed using Operetta CLS and Analysis Software 4.5 (Perkin-Elmer). […]

Data set [2] relates to APP/PS1 mice. Description: ac-S565 COX2 in microglia and neuron of treated mice (immunofluorescence, western blot, Fig 4c,d). Format: in vivo, mouse. To be noted: APP/PS1 + N-AS, individual values.
From the text: Adult neurons and microglia were isolated from the mice brain as previously described. In brief, the cortex of WT (1, 3, 5, or 9-months-old), APP/PS1 (1, 3, 5, or 9-months-old), APP/PS1 treated with N-AS (9-months-old) or APP/PS1 treated with aspirin (9-months-old) mice were minced in Hibernate A (Gibco)/B27 (Invitrogen) medium and dissociated using papain (Worthington) solution. After tissue trituration, cells were separated by Optiprep (Sigma-Aldrich) density gradient centrifugation. The purity of the fractionated neurons and microglia were acutely confirmed by neuronal (NeuN, mouse, 1:200, Millipore, MAB377) and microglial (Iba1, rabbit, 1:1000, Wako, 019-19941) markers and the isolated neurons and microglia were acutely analyzed for the acetylation assay and lipid mediators metabololipidomics.
as §1, with “(Bitplane)[11].” for “(Bitplane)[11]. For the analysis of age-dependent microglial COX2^+ CX3CR1^+ cells in WT and APP/PS1 mice, COX2 (rabbit, 1:100, Abcam, ab15191) and CX3CR1 (mouse, 1:100, BioLegend, 149008) antibody were used and the images were acquired on Alexa 488 and APC Channel with performed using Operetta CLS and Analysis Software 4.5 (Perkin-Elmer).”
Samples were lysed in RIPA buffer (Cell signaling Technologies), then subjected to SDS-PAGE and transferred to a nitrocellulose membrane. […] We performed densitometric quantification using the ImageJ software (National Institutes of Health). […]
Background: A western blot detects proteins with antibodies after separation by electrophoresis.

For data set [3], the target named is T1, CYP 2C19 (Homo sapiens, UniProt P33261).
T1 construct: from tissue; host or cells: human liver microsomes
T1 sequence (P33261 whole entry): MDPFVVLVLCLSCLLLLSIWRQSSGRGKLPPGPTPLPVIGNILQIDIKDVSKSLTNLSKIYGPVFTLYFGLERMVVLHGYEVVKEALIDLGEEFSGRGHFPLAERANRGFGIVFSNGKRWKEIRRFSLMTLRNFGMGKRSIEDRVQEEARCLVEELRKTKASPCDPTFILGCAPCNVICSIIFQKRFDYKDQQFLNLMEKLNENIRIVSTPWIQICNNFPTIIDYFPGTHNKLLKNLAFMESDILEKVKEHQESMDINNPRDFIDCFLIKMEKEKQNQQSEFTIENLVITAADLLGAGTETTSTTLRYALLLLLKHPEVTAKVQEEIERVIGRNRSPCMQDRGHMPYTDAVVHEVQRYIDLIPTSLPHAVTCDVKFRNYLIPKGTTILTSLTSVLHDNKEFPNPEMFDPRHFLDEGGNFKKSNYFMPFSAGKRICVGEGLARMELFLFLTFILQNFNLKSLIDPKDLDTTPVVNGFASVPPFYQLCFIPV
Description: cytochrome P450 inhibition in human liver microsomes. Format: in vitro ADME. The method, then:
(§2) A 10 μl aliquot of this solution was then diluted using 90 μl of 100 mM potassium phosphate buffer (pH 7.4). Probe substrate cocktail solutions for seven major cytochrome P450 isozymes (phenacetin (100 μM for 1A2), bupropion (50 μM for 2B6), diclofenac (20 μM for 2C9), mephenytoin (100 μM for 2C19), dextromethorphan (5 μM for 2D6), chlorzoxazone (50 μM for 2E1), and midazolam (5 μM for 3A4)) were prepared with phosphate buffer. […] Reactions were stopped at 15 min by the addition of 200 μl cold acetonitrile (containing propranolol as internal standard at 20 ng ml^−1) and centrifuged at 17,968×g for 10 min. A 2 μl aliquot of the supernatant was injected into the LC-MS/MS system. The ratio of peak area of test compound /internal standard was used to determine the % metabolic activity of probe substrate according to the concentrations of N-AS added.
On the technique in general: Liver microsomes are a subcellular fraction often used to study metabolism.

Data set [4] addresses T2, CYP 2C9 (Homo sapiens, UniProt P11712).
T2 construct: from tissue; host or cells: human liver microsomes
Described as above. Format: in vitro ADME. The method, then: as §2

Data set [5] addresses T3, CYP 1A2 (Homo sapiens, UniProt P05177).
T3 construct: from tissue; host or cells: human liver microsomes
The data set is described as above. Format: in vitro ADME. On the procedure:
as §2

The target of data set [6] is T4, CYP 2B6 (Homo sapiens, UniProt P20813).
T4 construct: from tissue; host or cells: human liver microsomes
T4 sequence (P20813 whole entry): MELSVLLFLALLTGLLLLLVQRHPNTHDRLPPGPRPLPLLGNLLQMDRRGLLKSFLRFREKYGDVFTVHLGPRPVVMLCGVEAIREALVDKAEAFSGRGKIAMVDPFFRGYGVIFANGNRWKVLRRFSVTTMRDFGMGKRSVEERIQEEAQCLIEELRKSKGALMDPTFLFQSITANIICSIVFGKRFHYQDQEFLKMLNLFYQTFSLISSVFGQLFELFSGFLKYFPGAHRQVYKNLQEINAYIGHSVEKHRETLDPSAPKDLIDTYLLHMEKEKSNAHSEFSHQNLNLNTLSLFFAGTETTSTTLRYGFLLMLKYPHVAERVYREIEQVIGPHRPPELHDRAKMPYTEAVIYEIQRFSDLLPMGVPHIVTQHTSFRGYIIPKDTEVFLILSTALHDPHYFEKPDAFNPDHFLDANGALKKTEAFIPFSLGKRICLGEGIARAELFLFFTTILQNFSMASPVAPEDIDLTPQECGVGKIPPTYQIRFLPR
The description is as above. Format: in vitro ADME. On the procedure: as §2

Data set [7] addresses T5, CYP 3A4 (Homo sapiens, UniProt P08684).
T5 construct: from tissue; host or cells: human liver microsomes
The data set is described as above. Format: in vitro ADME. The method, then: as §2

Data set [8] concerns the target T6, CYP 2D6 (Homo sapiens, UniProt P10635).
T6 construct: from tissue; host or cells: human liver microsomes
The description is as above. Format: in vitro ADME. The method, then: as §2

The target in data set [9] is T7, CYP 2E1 (Homo sapiens, UniProt P05181).
T7 construct: from tissue; host or cells: human liver microsomes
T7 sequence (P05181 whole entry): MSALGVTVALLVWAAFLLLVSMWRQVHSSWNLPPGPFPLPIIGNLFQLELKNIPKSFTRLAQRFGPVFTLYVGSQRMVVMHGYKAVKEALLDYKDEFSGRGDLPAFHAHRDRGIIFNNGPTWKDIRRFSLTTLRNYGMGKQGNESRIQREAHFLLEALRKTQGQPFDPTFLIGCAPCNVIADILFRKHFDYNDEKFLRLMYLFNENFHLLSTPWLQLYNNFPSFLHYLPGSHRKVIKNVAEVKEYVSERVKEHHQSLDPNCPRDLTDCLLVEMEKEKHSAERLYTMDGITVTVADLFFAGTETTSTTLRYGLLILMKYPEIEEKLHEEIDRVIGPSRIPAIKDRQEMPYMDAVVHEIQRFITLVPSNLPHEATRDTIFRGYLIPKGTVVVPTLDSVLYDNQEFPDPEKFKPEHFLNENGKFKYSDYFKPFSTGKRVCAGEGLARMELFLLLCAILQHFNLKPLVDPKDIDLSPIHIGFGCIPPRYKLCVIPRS
The data set is described as above. Format: in vitro ADME. On the procedure:
as §2

Values joined by “and” are separate entries in the source; they are usually repeats but may differ in a detail not shown here. Identical values can stand only once.

Broadly, the IC50 is the point on the concentration scale where inhibition reaches its midpoint. Read a low IC50 as higher potency.

T6 sequence (P10635 whole entry): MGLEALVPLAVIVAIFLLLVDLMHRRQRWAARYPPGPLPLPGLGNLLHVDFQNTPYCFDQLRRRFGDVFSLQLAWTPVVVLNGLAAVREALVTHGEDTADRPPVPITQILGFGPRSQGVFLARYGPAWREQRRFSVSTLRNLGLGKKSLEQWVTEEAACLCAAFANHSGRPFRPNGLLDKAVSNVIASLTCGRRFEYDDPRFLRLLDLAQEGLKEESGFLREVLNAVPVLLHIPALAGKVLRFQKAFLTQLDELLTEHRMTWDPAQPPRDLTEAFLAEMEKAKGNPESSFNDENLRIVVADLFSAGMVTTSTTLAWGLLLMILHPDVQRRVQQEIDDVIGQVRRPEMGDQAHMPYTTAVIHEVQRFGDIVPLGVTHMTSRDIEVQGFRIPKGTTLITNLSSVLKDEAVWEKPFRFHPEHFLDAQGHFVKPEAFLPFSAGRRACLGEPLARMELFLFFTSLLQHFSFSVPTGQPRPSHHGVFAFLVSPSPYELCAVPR
T2 sequence (P11712 whole entry): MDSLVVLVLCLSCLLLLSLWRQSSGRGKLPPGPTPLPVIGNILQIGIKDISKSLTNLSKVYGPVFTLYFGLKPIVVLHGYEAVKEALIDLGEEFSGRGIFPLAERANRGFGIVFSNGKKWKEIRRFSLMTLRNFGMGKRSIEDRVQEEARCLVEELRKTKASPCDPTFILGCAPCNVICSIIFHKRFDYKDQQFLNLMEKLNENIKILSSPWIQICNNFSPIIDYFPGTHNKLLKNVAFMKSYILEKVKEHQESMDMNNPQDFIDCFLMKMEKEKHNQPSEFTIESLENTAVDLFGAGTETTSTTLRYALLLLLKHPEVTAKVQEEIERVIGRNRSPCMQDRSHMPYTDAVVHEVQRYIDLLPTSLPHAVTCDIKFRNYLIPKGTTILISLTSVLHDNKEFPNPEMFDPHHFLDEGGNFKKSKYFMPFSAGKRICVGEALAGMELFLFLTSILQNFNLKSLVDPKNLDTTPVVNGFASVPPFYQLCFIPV
T5 sequence (P08684 whole entry): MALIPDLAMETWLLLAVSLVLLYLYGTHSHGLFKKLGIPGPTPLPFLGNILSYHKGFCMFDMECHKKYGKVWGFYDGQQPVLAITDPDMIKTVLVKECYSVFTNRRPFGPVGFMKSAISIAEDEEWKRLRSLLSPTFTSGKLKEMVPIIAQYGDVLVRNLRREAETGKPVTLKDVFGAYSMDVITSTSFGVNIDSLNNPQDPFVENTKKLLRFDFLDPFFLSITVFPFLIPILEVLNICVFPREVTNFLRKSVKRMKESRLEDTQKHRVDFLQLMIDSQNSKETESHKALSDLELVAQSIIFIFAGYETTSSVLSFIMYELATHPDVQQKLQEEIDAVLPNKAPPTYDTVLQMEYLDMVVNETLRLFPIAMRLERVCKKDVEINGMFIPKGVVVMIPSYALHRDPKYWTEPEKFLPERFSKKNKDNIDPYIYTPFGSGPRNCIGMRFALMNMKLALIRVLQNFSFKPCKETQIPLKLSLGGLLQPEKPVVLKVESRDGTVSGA
T3 sequence (P05177 whole entry): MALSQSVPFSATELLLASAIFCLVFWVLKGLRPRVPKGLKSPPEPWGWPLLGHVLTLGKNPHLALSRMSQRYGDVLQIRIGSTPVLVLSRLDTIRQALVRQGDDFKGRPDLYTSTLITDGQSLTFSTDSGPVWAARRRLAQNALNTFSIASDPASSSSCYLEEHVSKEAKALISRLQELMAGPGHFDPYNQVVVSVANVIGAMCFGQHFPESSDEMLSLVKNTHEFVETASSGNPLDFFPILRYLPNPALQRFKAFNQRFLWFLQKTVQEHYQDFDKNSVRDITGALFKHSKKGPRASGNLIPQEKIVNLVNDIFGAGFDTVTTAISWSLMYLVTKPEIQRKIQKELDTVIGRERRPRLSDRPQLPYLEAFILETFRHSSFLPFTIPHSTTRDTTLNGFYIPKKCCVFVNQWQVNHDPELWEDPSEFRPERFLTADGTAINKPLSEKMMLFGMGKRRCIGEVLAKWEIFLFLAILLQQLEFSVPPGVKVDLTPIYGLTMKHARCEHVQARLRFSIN

In the case of `CCCCCCCCCCCCC/C=C/[C@@H](O)[C@H](CO)NC(C)=O` [N-AS, N-((2S,3R,E)-1,3-Dihydroxyoctadec-4-en-2-yl)acetamide], the “area occupied by Aβ plaques (thioflavin S)” value in [1] (Cortex) is 0.5468 and 0.5931 and 0.5106 and 0.2602 and 0.3052 and 0.2223 and 0.2101 and 0.1051; in data set [1] (Hippocampus) it was 0.3692 and 0.3742 and 0.26 and 0.2921 and 0.4067 and 0.08652 and 0.2333 and 0.1243. Moreover, the “microglia (Iba1) with ac-S565 and COX2 in cortex, quantification (Fig 4c)” value in data set [2] is 2.146 and 2.677 and 1.427 and 1.497 and 1.3659 and 1.3538. The “ac-S565 / total COX2, western blot (Fig 4d)” value in [2] (Microglia) was 1.271 and 0.7861 and 0.8284 and 0.7309 and 1.0567 and 1.371; in data set [2] (Neuron), 0.9062 and 0.3691 and 0.5034 and 0.9834 and 0.3378 and 0.4586. For the same molecule, the half-maximal inhibitory concentration (IC50) in data set [3], in data set [4], in [5], in data set [6], in data set [7] and in data set [8] was more than 10 µM in each case. The same molecule gave an IC50 in [9] of more than 10 µM. Also, the activity at 15 min, 25 µM in data set [3] (human, liver microsomes, pH 7.4, probe mephenytoin, N-AS 25 µM, read-out: % of control at 25 µM) was 79.6%; in data set [4] (human, liver microsomes, pH 7.4, probe diclofenac, N-AS 25 µM, read-out: % of control at 25 µM), 95.5%; in data set [5] (human, liver microsomes, pH 7.4, probe phenacetin, N-AS 25 µM, read-out: % of control at 25 µM), 94.6%; in data set [6] (human, liver microsomes, pH 7.4, probe bupropion, N-AS 25 µM, read-out: % of control at 25 µM), 92.7%; in data set [7] (human, liver microsomes, pH 7.4, probe midazolam, N-AS 25 µM, read-out: % of control at 25 µM), 114%; in data set [8] (human, liver microsomes, pH 7.4, probe dextromethorphan, N-AS 25 µM, read-out: % of control at 25 µM), 104%. In addition, the activity at 15 min, 25 µM in data set [9] (human, liver microsomes, pH 7.4, probe chlorzoxazone, N-AS 25 µM, read-out: % of control at 25 µM) was 84%.

These data come from article PMC7217877, “N-AS-triggered SPMs are direct regulators of microglia in a model of Alzheimer’s disease” (Nature Communications, 2020).
